The assay has as its system BDF1 mice, P388 leukemia ip, median survival T/C. Nature of the assay: NCI In Vivo Anticancer Drug Screen. Data for tumor model P388 Leukemia (intraperitoneal) in B6D2F1 (BDF1) mice. As to conditions: endpoint: median survival time, higher = longer survival. In a few lines: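 Steps: implant the tumour, treat one group with compound and another with vehicle, record survival, then divide treated by control.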

The mark [1] stands for this setting: dose: 100.0 mg/kg/injection, schedule: Q01DX001 (ip), vehicle: saline with Tween-80.
Setting [2] is: dose: 200.0 mg/kg/injection, schedule: Q01DX001 (ip), vehicle: saline with Tween-80.
The mark [3] stands for this setting: dose: 100.0 mg/kg/injection, schedule: Q04DX003 (ip), vehicle: saline with Tween-80.
Setting [4] is: dose: 200.0 mg/kg/injection, schedule: Q04DX003 (ip), vehicle: saline with Tween-80.
Where [5] appears, read: dose: 25.0 mg/kg/injection, schedule: Q01DX009 (ip), vehicle: Klucel (hydroxypropylcellulose) (HPC).
Where [6] appears, read: dose: 50.0 mg/kg/injection, schedule: Q01DX009 (ip), vehicle: Klucel (hydroxypropylcellulose) (HPC).
Where [7] appears, read: dose: 50.0 mg/kg/injection, schedule: Q04DX003 (ip), vehicle: Klucel (hydroxypropylcellulose) (HPC).
Where [8] appears, read: dose: 100.0 mg/kg/injection, schedule: Q01DX009 (ip), vehicle: Klucel (hydroxypropylcellulose) (HPC).
Setting [9] is: dose: 100.0 mg/kg/injection, schedule: Q04DX003 (ip), vehicle: Klucel (hydroxypropylcellulose) (HPC).
Setting [10] is: dose: 200.0 mg/kg/injection, schedule: Q04DX003 (ip), vehicle: Klucel (hydroxypropylcellulose) (HPC).
The mark [11] stands for this setting: dose: 200.0 mg/kg/injection, schedule: Q01DX009 (ip), vehicle: Klucel (hydroxypropylcellulose) (HPC).
Where [12] appears, read: dose: 50.0 mg/kg/injection, schedule: Q01DX009 (ip), vehicle: saline with Tween-80.
The mark [13] stands for this setting: dose: 100.0 mg/kg/injection, schedule: Q01DX009 (ip), vehicle: saline with Tween-80.
The mark [14] stands for this setting: dose: 200.0 mg/kg/injection, schedule: Q01DX009 (ip), vehicle: saline with Tween-80.

“And” between values parts separate entries of the source, which are not always exact repeats. Equal values may be shown once. Inconclusive results and toxic doses are left out.

Consider `c1ccc(N2CCCCCN2c2ccccc2)cc1`, for which the T/C is 92 % of control (dose: 50.0 mg/kg/injection, schedule: Q01DX001 (ip), vehicle: saline with Tween-80); 90 % of control under setting [1]; 90 % of control under setting [2].
Take `COc1ccccc1NC(=O)Nc1ccc(C(=O)OCC(C)C)cc1`: the T/C was 108 % of control (dose: 50.0 mg/kg/injection, schedule: Q04DX003 (ip), vehicle: saline with Tween-80); 91 % of control under setting [3]; 100 % of control under setting [4].
As for `CC(=O)Nc1nccs1`, the T/C is, setting by setting: under setting [5], 104 % of control; (dose: 25.0 mg/kg/injection, schedule: Q04DX003 (ip), vehicle: Klucel (hydroxypropylcellulose) (HPC)) 95 % of control; under setting [6], 95 % of control; under setting [7], 91 % of control; under setting [8], 109 % of control; under setting [9], 95 % of control.
In the case of `[Cl][Co][Cl].[NH-]CC[NH-].[NH-]CC[NH-]`, the T/C runs as follows: (dose: 25.0 mg/kg/injection, schedule: Q04DX002 (ip), vehicle: saline) 100 % of control; (dose: 50.0 mg/kg/injection, schedule: Q04DX002 (ip), vehicle: saline) 109 % of control; (dose: 100.0 mg/kg/injection, schedule: Q04DX002 (ip), vehicle: saline) 104 % of control and 111 % of control.
With `Cc1c2ccccc2c(CSC(=N)N)c2ccccc12`, the T/C runs as follows: (dose: 9.38 mg/kg/injection, schedule: Q04DX003 (ip), vehicle: saline with Tween-80) 154 % of control; (dose: 12.5 mg/kg/injection, schedule: Q04DX003 (ip), vehicle: saline) 160 % of control; (dose: 25.0 mg/kg/injection, schedule: Q04DX003 (ip), vehicle: saline) 180 % of control.
With `Nc1nc(SCc2cccc(Br)c2)c2ncn(C3OC(CO)C(O)C3O)c2n1` (centres undefined), the T/C runs as follows: under setting [3], 104 % of control; under setting [4], 122 % of control.
As for `C/C=C1\C(=O)O[C@@]23C=C[C@H]4C(C(=O)OC)=CO[C@@H](O[C@H]12)[C@H]43`, the T/C by setting is: (dose: 0.75 mg/kg/injection, schedule: Q01DX009 (ip), vehicle: saline) 100 % of control; (dose: 2.5 mg/kg/injection, schedule: Q01DX009 (ip), vehicle: saline) 115 % of control; (dose: 165.0 micrograms/kg/injection, schedule: Q01DX009 (ip), vehicle: Klucel (hydroxypropylcellulose) (HPC)) 105 % of control; (dose: 620.0 micrograms/kg/injection, schedule: Q01DX009 (ip), vehicle: Klucel (hydroxypropylcellulose) (HPC)) 115 % of control; (dose: 1250.0 micrograms/kg/injection, schedule: Q01DX009 (ip), vehicle: Klucel (hydroxypropylcellulose) (HPC)) 105 % of control.
In the case of `CC1=C/C(=N/NC(N)=O)CC(C)C1` (centres undefined), the T/C by setting is: under setting [7], 100 % of control; under setting [9], 105 % of control; under setting [10], 100 % of control.
As to `O=[N+]([O-])c1[nH]cnc1Br`, the T/C was 93 % of control under setting [5], 96 % of control under setting [6], 96 % of control under setting [8] and 86 % of control under setting [11].
`CCOc1cc(Cl)c(N)c(Cl)c1`: the T/C was 114 % of control under setting [1] and 98 % of control under setting [2].
For the molecule `O=C(c1ccccc1)c1c2ccccc2c(C(=O)c2ccccc2)c2ccccc12`, the T/C by setting is: under setting [8], 105 % of control; under setting [9], 91 % of control; under setting [11], 100 % of control; under setting [10], 100 % of control; (dose: 400.0 mg/kg/injection, schedule: Q04DX003 (ip), vehicle: Klucel (hydroxypropylcellulose) (HPC)) 95 % of control.
On to `O=C1CSC(=S)N1c1ccco1`, for which the T/C was 100 % of control (dose: 50.0 mg/kg/injection, schedule: Q01DX001 (ip), vehicle: Klucel (hydroxypropylcellulose) (HPC)); 95 % of control (dose: 100.0 mg/kg/injection, schedule: Q01DX001 (ip), vehicle: Klucel (hydroxypropylcellulose) (HPC)); 104 % of control (dose: 100.0 mg/kg/injection, schedule: Q04DX003 (ip), vehicle: saline); 95 % of control (dose: 200.0 mg/kg/injection, schedule: Q01DX001 (ip), vehicle: Klucel (hydroxypropylcellulose) (HPC)); 100 % of control (dose: 200.0 mg/kg/injection, schedule: Q04DX003 (ip), vehicle: saline); 100 % of control (dose: 400.0 mg/kg/injection, schedule: Q04DX003 (ip), vehicle: saline).
As to `CC1=CC(=Nc2ccc(N(C)C)cc2)C=CC1=O`, the T/C runs as follows: (dose: 3.13 mg/kg/injection, schedule: Q01DX009 (ip), vehicle: suspension in saline) 98 % of control; (dose: 6.25 mg/kg/injection, schedule: Q01DX009 (ip), vehicle: suspension in saline) 117 % of control; (dose: 12.5 mg/kg/injection, schedule: Q01DX009 (ip), vehicle: suspension in saline) 123 % of control; (dose: 25.0 mg/kg/injection, schedule: Q01DX009 (ip), vehicle: suspension in saline) 117 % of control.
`C/C=C/C(=O)OC1CC(=O)N(C)c2cc(cc(OC)c2Cl)C/C(C)=C/C=CC(OC)C2(O)CC(OC(=O)N2)C(C)C2OC12C` (centres undefined): the T/C reads like this: (dose: 0.8 micrograms/kg/injection, schedule: Q01DX009 (ip), vehicle: saline + alcohol) 150 % of control; (dose: 1.5 micrograms/kg/injection, schedule: Q01DX009 (ip), vehicle: saline + alcohol) 150 % of control; (dose: 3.1 micrograms/kg/injection, schedule: Q01DX009 (ip), vehicle: saline + alcohol) 150 % of control; (dose: 6.2 micrograms/kg/injection, schedule: Q01DX009 (ip), vehicle: saline + alcohol) 160 % of control; (dose: 12.5 micrograms/kg/injection, schedule: Q01DX009 (ip), vehicle: saline + alcohol) 170 % of control; (dose: 25.0 micrograms/kg/injection, schedule: Q01DX009 (ip), vehicle: saline + alcohol) 173 % of control. Further, the T/C runs as follows: (dose: 50.0 micrograms/kg/injection, schedule: Q01DX009 (ip), vehicle: saline + alcohol) 210 % of control; (dose: 100.0 micrograms/kg/injection, schedule: Q01DX009 (ip), vehicle: saline + alcohol) 210 % of control; (dose: 200.0 micrograms/kg/injection, schedule: Q01DX009 (ip), vehicle: saline + alcohol) 210 % of control.
On to `CC(CCCC1SCC2NC(=O)NC21)C(=O)O` (centres undefined), for which the T/C reads like this: under setting [8], 102 % of control; under setting [11], 91 % of control; (dose: 400.0 mg/kg/injection, schedule: Q01DX009 (ip), vehicle: Klucel (hydroxypropylcellulose) (HPC)) 98 % of control.
In the case of `CC(=O)OCC1OC(OC2=C(CC=C(Cl)Cl)C(=O)c3ccccc3C2=O)C(OC(C)=O)C(OC(C)=O)C1OC(C)=O` (centres undefined), the T/C is 100 % of control (dose: 25.0 mg/kg/injection, schedule: Q01DX009 (ip), vehicle: saline with Tween-80); 100 % of control and 104 % of control under setting [12]; 100 % of control and 102 % of control under setting [13]; 117 % of control under setting [14].
In the case of `Cc1ccc(CNc2ccc([N+](=O)[O-])cc2)cc1`, the T/C runs as follows: under setting [12], 104 % of control; under setting [13], 90 % of control; under setting [14], 104 % of control.
Regarding `N=Cc1c(O)n(-c2ccccc2)c(=O)[nH]c1=O`, the T/C is 112 % of control under setting [13]; 100 % of control under setting [14]; 104 % of control (dose: 400.0 mg/kg/injection, schedule: Q01DX009 (ip), vehicle: saline with Tween-80).
With `CCCCNC(C)(C)CSSSCC(C)(C)NCCCC`, the T/C was 110 % of control (dose: 6.25 mg/kg/injection, schedule: Q01DX009 (ip), vehicle: other); 86 % of control (dose: 12.5 mg/kg/injection, schedule: Q01DX009 (ip), vehicle: other); 98 % of control (dose: 12.5 mg/kg/injection, schedule: Q04DX003 (ip), vehicle: other); 114 % of control (dose: 25.0 mg/kg/injection, schedule: Q01DX009 (ip), vehicle: other); 117 % of control (dose: 25.0 mg/kg/injection, schedule: Q04DX003 (ip), vehicle: other); 110 % of control (dose: 50.0 mg/kg/injection, schedule: Q01DX009 (ip), vehicle: other). The T/C (dose: 50.0 mg/kg/injection, schedule: Q04DX003 (ip), vehicle: other) was 117 % of control and the T/C (dose: 100.0 mg/kg/injection, schedule: Q04DX003 (ip), vehicle: other) was 112 % of control.

The values above are taken from PubChem BioAssay AID328 (DTP/NCI, 2004).
